Calls of active or inactive are those of the source.
Columns and labels:
[1] = target: T1, Calpain-2 catalytic subunit (Sus scrofa, UniProt P43367); experiment: pig calpain II inhibitor potency, dose response, biochemical, fluorogenic peptide substrate (AID 1420); type: functional
T1 sequence (P43367 whole entry): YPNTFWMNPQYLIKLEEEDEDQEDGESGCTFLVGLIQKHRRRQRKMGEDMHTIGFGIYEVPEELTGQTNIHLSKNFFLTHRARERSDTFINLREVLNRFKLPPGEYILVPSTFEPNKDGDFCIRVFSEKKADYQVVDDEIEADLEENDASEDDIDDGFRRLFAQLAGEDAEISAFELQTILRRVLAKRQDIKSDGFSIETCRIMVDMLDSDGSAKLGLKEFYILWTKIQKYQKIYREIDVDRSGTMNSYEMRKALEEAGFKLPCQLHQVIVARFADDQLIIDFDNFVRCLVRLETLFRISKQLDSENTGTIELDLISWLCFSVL

HEK293 [2] = experiment: cells; conditions: Homo sapiens
HEK293 [3] = experiment: cells; conditions: Homo sapiens; remark: listed apart in the source
[4] = target: T2, Sentrin-specific protease 6 (Homo sapiens, UniProt Q9GZR1); type: functional;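 also: Luminescence-based dose-response confirmatory assay of SENP6 inhibition, following up an ultra-high-throughput screen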
T2 sequence (Q9GZR1 whole entry): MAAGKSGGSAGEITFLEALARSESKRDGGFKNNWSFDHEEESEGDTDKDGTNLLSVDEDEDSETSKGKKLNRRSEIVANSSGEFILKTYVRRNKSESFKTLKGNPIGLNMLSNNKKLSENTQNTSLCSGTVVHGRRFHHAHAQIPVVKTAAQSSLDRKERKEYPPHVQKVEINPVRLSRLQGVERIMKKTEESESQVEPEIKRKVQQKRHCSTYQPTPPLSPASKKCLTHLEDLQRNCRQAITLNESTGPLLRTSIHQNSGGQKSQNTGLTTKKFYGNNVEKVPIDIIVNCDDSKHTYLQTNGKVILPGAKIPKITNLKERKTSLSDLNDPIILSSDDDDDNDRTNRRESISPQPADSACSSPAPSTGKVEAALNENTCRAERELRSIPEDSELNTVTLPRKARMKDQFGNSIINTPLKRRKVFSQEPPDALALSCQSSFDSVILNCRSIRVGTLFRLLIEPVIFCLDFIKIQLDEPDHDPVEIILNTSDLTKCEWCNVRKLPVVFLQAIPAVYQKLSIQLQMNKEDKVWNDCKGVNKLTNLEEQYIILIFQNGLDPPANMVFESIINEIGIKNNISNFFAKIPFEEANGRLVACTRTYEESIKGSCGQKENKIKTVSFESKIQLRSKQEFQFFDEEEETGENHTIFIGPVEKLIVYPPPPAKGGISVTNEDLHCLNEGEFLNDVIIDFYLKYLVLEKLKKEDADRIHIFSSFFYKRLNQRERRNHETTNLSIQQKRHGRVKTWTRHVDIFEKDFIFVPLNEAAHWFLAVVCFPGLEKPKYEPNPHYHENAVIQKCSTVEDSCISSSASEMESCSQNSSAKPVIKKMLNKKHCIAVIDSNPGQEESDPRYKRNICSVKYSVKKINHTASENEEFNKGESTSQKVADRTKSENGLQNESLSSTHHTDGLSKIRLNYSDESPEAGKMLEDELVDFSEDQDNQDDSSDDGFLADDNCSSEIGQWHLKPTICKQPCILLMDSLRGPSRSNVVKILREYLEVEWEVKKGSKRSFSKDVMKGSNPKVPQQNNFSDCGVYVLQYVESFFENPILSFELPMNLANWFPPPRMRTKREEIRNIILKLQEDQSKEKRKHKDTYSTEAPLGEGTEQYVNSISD

Caspase-3 = target: T3, Caspase-3 (Homo sapiens, UniProt P42574); type: functional;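 also: Dose-response selectivity test against caspase-3 for candidate inhibitors of sentrin-specific proteases (SENPs)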
T3 sequence (P42574 whole entry): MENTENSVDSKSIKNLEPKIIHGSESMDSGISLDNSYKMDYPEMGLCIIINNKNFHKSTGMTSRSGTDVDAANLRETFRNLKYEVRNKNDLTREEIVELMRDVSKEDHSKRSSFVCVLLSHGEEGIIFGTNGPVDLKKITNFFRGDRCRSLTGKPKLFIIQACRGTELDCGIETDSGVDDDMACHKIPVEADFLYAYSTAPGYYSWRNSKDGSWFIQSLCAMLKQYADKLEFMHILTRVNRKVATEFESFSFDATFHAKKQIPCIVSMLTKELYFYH

[5] = target: T4, Sentrin-specific protease 8 (Homo sapiens, UniProt Q96LD8); type: functional;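 also: luminescence read-out of SENP8 inhibition, dose-response confirmation following an ultra-high-throughput screen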
T4 sequence (Q96LD8 whole entry): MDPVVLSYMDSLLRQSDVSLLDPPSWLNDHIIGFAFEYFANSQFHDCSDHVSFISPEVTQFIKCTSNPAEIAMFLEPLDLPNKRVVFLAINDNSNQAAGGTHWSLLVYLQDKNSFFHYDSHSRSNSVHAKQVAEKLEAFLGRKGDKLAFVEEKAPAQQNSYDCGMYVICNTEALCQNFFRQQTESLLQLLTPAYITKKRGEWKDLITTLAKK

[6] = THP-1 cell cytotoxicity, dose response, cytotoxicity control for non-replicating M. tuberculosis project (AID 489025); type: functional
[7] = NIH-3T3 fibroblast cytotoxicity, dose response, cytotoxicity control, cell-based, fluorescence, Alamar Blue, secondary assay (AID 2327); type: functional;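 also: NIH-3T3 mouse fibroblasts cultured with fluconazole at 8 µg/mL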
[8] = target: DNA dC->dU-editing enzyme APOBEC-3A (Homo sapiens, UniProt P31941); experiment: APOBEC3A DNA deaminase inhibitors, dose response, biochemical (AID 504722); type: functional
[9] = C. albicans growth with fluconazole, confirmation, fluorescence, retest (AID 2467); type: functional, cell-based
[10] = target: DNA dC->dU-editing enzyme APOBEC-3G (Homo sapiens, UniProt Q9HC16); experiment: Dose Response confirmation of small molecule APOBEC3G DNA Deaminase Inhibitors via a fluorescence-based single-stranded DNA deaminase assay. [Related pubchem assays (depositor defined):AID493012, AID493028]; type: functional
cells [11] = type: functional, cell-based
cells [12] = type: functional, cell-based; remark: listed apart in the source
[13] = target: Heat shock protein HSP 90-alpha (Homo sapiens, UniProt P07900); type: functional, organism-based
[14] = THP-1 cell cytotoxicity, dose response, cytotoxicity control for Vif-APOBEC3G degradation inhibitor project, THP-1 cells (AID 1117359); type: functional; conditions: Human immunodeficiency virus 1, THP-1
[15] = target: T5, Polyadenylate-binding protein 1 (Homo sapiens, UniProt P11940); experiment: PABP1 MLLE–PAM2 interaction inhibitors, dose response, miRNA deadenylation inhibitor project, biochemical, fluorescence polarization, Cy5-PAM2 peptide, secondary (AID 602260); type: functional; conditions: read-out: IC50_Mean
[16] = target: T5, Polyadenylate-binding protein 1; experiment: PABP1 MLLE–PAM2 binding inhibitor potency, dose response, biochemical, fluorescence polarization, FITC-PAM2 peptide (AID 602259); type: functional; conditions: read-out: IC50_Mean
[17] = cytotoxicity toward NIH3T3 fibroblasts, dose response, counter-screen, cell-based, ATP luminescence, mouse fibroblasts (AID 2010); type: functional;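 also: cells exposed to compound for about 90 hours before reading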
[18] = inhibitors of intracellular T. cruzi replication, confirmation, NIH3T3 host cells, beta-gal luminescence (AID 2044); type: functional, cell-based;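 also: intracellular parasites grown in NIH/3T3 mouse fibroblasts as host cells; luminescent beta-galactosidase reporter signal from transgenic T. cruzi replicating inside host cells; inhibitors lower the luminescence signal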
[19] = growth suppression of PTEN-null colon cells, dose response, cell-based, HCT116 PTEN knockout (AID 1047); type: functional;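 also: HCT116 colon tumor cells with PTEN knocked out; cells exposed to compound for 60 hours before readout; potency for loss of cell viability measured by luminescence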
[20] = HEp-2 cell cytotoxicity, dose response, cytotoxicity control for RSV inhibitor project, HTS (AID 2410); type: functional; conditions: human respiratory syncytial virus
[21] = growth suppression of beta-catenin-knockout colon cells, dose response, cell-based, HCT116, human colon tumor (AID 1045); type: functional;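 also: HCT116 colon tumor cells with beta catenin knocked out; cells exposed to compound for 60 hours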
[22] = target: Induced myeloid leukemia cell differentiation protein Mcl-1 (Homo sapiens, UniProt Q07820); type: functional
Cytochrome P450 2C19 = Cytochrome P450 2C19 (Homo sapiens, UniProt P33261); experiment: Cytochrome panel assay with activity outcomes. Panel member name: p450-cyp2c19 Compounds with AC50 equal or less than 10 uM are considered active; type: functional; conditions: read-out: AC50
[23] = MC4R antagonists, dose response, counter-screen for LGR2 antagonist project, cell-based, plate reader, cherry pick (AID 743444); type: functional;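 also: transfected HEK 293 cells stimulated with alpha-MSH peptide; potency of inhibitors of the alpha-MSH evoked signal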
[24] = LGR2 antagonists, dose response, cell-based, HEK293, CRE-luciferase reporter, cherry pick, set 2 (AID 743343); type: functional;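 also: transfected cells were stimulated with diluted bursicon conditioned medium after compound addition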
[25] = ZM109 Env clade C HIV-1 fusion inhibitors, dose response, HeLa effector, CEM target cells, luciferase, cherry-pick (AID 652058); type: functional, cell-based
[26] = inhibitors of clade B AD8 Env fusion, dose response, cell-based, cherry-pick (AID 652062); type: functional;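 also: luciferase signal from cell-cell fusion driven by HIV-1 clade B AD8 Env; potency is for inhibitors of fusion seen as a drop in luminescence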
[27] = CEM21 lymphoblast cell cytotoxicity, dose response, cytotoxicity control for viral fusion inhibitor project, CellTiter-Glo luminescence, cherry-picked (AID 652042); type: functional, cell-based;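 also: potency for signal decrease meaning cytotoxicity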
[28] = inhibitors of HIV Env-driven cell fusion, dose response, cherry-pick (AID 652057); type: functional, cell-based
[29] = target: FAD-linked sulfhydryl oxidase ALR (Homo sapiens, UniProt P55789); experiment: inhibitors of human ALR sulfhydryl oxidase, dose response, biochemical, H2O2 detection, luminescence, cherry-pick (AID 493248)
Sequence of FAD-linked sulfhydryl oxidase ALR (P55789 whole entry): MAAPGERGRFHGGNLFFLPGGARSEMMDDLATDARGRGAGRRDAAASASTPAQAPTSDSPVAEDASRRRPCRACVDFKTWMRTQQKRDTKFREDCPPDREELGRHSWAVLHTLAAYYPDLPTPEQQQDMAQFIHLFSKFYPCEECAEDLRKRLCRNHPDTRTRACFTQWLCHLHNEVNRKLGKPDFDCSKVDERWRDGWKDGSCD

Sequence of DNA dC->dU-editing enzyme APOBEC-3A (P31941 whole entry): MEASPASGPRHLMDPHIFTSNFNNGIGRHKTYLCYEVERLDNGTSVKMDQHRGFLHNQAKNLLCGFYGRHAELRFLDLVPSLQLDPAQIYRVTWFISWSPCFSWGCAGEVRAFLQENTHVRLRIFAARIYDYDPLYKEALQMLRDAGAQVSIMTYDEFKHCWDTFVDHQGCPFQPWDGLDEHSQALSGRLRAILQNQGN
T5 sequence (P11940 whole entry): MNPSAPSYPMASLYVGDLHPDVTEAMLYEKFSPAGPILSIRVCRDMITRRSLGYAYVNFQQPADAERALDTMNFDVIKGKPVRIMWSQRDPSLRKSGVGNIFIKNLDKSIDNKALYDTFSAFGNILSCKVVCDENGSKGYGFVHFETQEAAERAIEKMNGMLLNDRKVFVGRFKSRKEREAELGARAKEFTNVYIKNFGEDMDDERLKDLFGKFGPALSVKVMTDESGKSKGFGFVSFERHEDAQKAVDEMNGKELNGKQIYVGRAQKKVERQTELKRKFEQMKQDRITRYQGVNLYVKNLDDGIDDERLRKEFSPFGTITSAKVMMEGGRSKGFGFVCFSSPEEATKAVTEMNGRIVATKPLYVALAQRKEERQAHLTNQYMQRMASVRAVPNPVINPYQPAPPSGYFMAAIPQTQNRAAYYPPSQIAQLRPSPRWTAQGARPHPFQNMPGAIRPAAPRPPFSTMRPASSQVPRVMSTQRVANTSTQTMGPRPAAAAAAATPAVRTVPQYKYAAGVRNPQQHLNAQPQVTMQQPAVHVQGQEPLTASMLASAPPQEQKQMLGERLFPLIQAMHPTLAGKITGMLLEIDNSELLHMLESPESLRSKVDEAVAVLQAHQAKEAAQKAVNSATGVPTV
Sequence of DNA dC->dU-editing enzyme APOBEC-3G (Q9HC16 whole entry): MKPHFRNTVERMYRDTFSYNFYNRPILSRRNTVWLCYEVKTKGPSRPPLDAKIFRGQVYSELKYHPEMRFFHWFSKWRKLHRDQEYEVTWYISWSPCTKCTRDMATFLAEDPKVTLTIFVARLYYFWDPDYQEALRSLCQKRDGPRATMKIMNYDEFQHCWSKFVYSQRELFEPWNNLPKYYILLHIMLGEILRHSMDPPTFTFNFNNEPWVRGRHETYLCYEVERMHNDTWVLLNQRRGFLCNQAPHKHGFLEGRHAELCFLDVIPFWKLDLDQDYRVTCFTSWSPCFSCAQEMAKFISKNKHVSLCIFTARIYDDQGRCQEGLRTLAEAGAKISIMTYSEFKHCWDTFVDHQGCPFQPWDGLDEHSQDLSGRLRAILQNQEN
Sequence of Induced myeloid leukemia cell differentiation protein Mcl-1 (Q07820 whole entry): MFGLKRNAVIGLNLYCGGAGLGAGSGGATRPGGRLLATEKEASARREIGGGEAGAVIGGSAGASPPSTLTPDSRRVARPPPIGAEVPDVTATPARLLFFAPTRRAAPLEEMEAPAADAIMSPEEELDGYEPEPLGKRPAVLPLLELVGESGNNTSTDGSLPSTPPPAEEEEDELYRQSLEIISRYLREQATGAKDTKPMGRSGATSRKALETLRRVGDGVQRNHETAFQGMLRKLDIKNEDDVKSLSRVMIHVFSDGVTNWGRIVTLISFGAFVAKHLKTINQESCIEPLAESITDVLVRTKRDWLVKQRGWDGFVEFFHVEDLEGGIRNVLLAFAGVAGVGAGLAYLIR
Sequence of Cytochrome P450 2C19 (P33261 whole entry): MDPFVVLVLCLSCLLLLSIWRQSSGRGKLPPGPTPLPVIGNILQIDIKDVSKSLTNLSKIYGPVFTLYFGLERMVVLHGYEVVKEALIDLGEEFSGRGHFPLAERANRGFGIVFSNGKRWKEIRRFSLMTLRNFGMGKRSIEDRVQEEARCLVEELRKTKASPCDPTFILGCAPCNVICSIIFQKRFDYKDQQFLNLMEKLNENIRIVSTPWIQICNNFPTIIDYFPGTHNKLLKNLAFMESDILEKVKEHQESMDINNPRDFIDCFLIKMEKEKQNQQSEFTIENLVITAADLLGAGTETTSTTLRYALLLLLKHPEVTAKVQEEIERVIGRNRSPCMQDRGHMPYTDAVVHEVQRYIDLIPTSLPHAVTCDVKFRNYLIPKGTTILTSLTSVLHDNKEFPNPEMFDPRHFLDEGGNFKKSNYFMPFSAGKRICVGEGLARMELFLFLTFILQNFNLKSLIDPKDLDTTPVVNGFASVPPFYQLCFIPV

SMILES: CSc1ccccc1NC(=O)COc1ccccc1C
- IC50 [1]: 8.86 µM (not active)

SMILES: C=CCn1c(S)nnc1-c1csc(-c2ccc(OC)c(OC)c2)n1
- EC50 (HEK293 [2]): > 59.7 µM (inactive)
- EC50 (HEK293 [3]): > 0.736 µM (active)

SMILES: Cc1ccc(Cl)c2sc(NC(=O)C3=COCCO3)nc12
- IC50 [4]: 13.1 µM (active)
- IC50 (Caspase-3): 63.4 µM (active)
- IC50 [5]: > 100 µM (inactive)

SMILES: Cc1ccc2c(c1)C(=O)C(=O)N2CCCOc1ccccc1
- CC50 [6]: > 40 µM (active)

SMILES: Cc1ccc(C)c(N2CCN(C(=O)C3CCCCN3S(=O)(=O)c3ccc(F)cc3)CC2)c1 (stereo not drawn)
- IC50 [1]: 7.84 µM (not active)

SMILES: Sc1nnc(-c2ccccc2)n1/N=C/c1cccs1
- EC50 [7]: > 160 µM (inactive)
- IC50 [8]: > 100 µM (inactive)
- EC50 [9]: 2.56 µM (active)
- IC50 [10]: 1.81 µM (active)

SMILES: CC1Cc2ccccc2N1C(=O)COC(=O)Cn1nnc(-c2ccccc2)n1 (stereo not drawn)
- IC50 [1]: 8.56 µM (not active)

SMILES: CCN(CC(=O)Nc1ccc2c(c1)OCCO2)CC(=O)Nc1ccc2c(c1)OCO2
- EC50 (cells [11]): > 350 µM (not active)
- EC50 (cells [12]): > 350 µM (not active)

SMILES: CC(C)COc1cccc(C(=O)NNC(=O)C2COc3ccccc3O2)c1 (stereo not drawn)
- EC50 (cells [11]): > 350 µM (not active)
- EC50 (cells [12]): > 350 µM (not active)

SMILES: CCOC(=O)C1=C(N)N2C(=O)C(C)SC2=C(C(=O)OC)C1c1ccccc1OC (stereo not drawn)
- AC50 [13]: 0.982 µM (active)

SMILES: COc1cc(SC)ccc1C(=O)Nc1c(C)cccc1C
- CC50 [14]: > 40 µM (active)

SMILES: O=C(O)c1ccccc1NC(c1ccccc1)c1ccc2cccnc2c1O (stereo not drawn)
- AC50 [13]: 7.23 µM (active)

SMILES: Cc1[nH]n(C2=NCCS2)c(=O)c1N=Nc1ccccc1
- IC50 [15]: > 66 µM (inactive)
- IC50 [16]: > 66 µM (inactive)

SMILES: Cc1ccc2[nH]c(C)c(/C=N/Nc3nc4ccccc4s3)c2c1
- EC50 [17]: > 60 µM (inconclusive)
- EC50 [18]: 2.24 µM (active)
- AC50 [13]: 5.3 µM (active)
- EC50 [19]: 18 µM (active)
- CC50 [20]: 14.6 µM (active)
- EC50 [21]: 19.7 µM (active)

SMILES: N#CC1=C2SCN(c3ccccc3)CN2C(=O)CC1c1c(Cl)cccc1Cl (stereo not drawn)
- IC50 [8]: > 100 µM (inactive)
- IC50 [10]: 4.44 µM (active)

SMILES: O=C(/C=C/c1cccs1)N1CCN(c2ccc(O)cc2)CC1
- CC50 [14]: > 40 µM (active)
- IC50 [22]: 5.63 µM (active)

SMILES: CSc1ccc(NC(=O)Nc2cc(C)ccn2)cc1
- AC50 (Cytochrome P450 2C19): 3.98 µM (inconclusive)
- AC50 [23]: 9.27 µM (active)
- AC50 [24]: 3.7 µM (active)

SMILES: Cn1cccc1/C=N/n1c(S)nnc1-c1ccco1
- IC50 [8]: > 100 µM (inactive)
- IC50 [10]: 3.92 µM (active)

SMILES: CC(=O)NNC(=O)CN1C(=O)/C(=C/c2ccccc2)SC1=S
- IC50 [15]: > 66 µM (inactive)
- IC50 [16]: > 66 µM (inactive)

SMILES: Cc1ccc(N2C(=O)C3C4C=CC(CN=C(S)N5CCN(c6ccccc6)CC5)(O4)C3C2=O)cc1 (stereo not drawn)
- AC50 [13]: 14.9 µM (active)

SMILES: O=c1[nH]c(=O)n([C@@H]2O[C@H](CO)[C@@H](O)[C@H]2O)cc1F [5-FLUOROURIDINE]
- EC50 (HEK293 [2]): > 59.6 µM (inactive)
- EC50 (HEK293 [3]): > 59.6 µM (inactive)

SMILES: C[C@H](C(=O)N(C)C[C@@H]1OCc2ccccc2-c2c(n(C)c3ccccc23)C(=O)N([C@@H](C)CO)C[C@H]1C)c1ccccc1
- AC50 [25]: 12 µM (active)
- AC50 [26]: 8.67 µM (active)
- AC50 [27]: 22.5 µM (active)
- AC50 [28]: 4.94 µM (active)

SMILES: Cc1ccc(NC(S)=NCC23C=CC(O2)C2C(=O)N(c4ccc(C)cc4)C(=O)C23)cc1 (stereo not drawn)
- AC50 [13]: 4.6 µM (active)

SMILES: COc1ccccc1OCC(=O)Nn1c(=S)[nH]c2ncccc2c1=O
- IC50 [15]: > 66 µM (inactive)
- IC50 [16]: > 66 µM (inactive)

SMILES: COc1cccc(/C=N/n2c(S)nnc2-c2cc(C)[nH]n2)c1OC
- AC50 [29]: 4.04 µM (active)
- IC50 [8]: > 100 µM (inactive)
- IC50 [10]: 3.89 µM (active)

SMILES: O=C(C[C@H]1CC[C@@H](NC(=O)c2cccc(F)c2)[C@@H](CO)O1)NCc1ccc(Oc2ccccc2)cc1
- AC50 [25]: 1.21 µM (active)
- AC50 [26]: 1.2 µM (active)
- AC50 [27]: 58.1 µM (active)
- AC50 [28]: 0.525 µM (active)

SMILES: CN(C)c1oc(-c2ccccc2[N+](=O)[O-])nc1C#N
- IC50 [15]: > 66 µM (inactive)
- IC50 [16]: > 66 µM (inactive)

Reference: ChEMBL document CHEMBL1201862, “PubChem BioAssay data set” (2004)
